Here are results for five compounds from patent US9169241B2, “Quinolinyloxyphenylsulfonamides” (Max-Planck-Gesellschaft Zur Forderung der Wissenschaften …, priority 2009, dated 2015).

Holding throughout (type): cell-based
One experiment relates to cells. In words: Boyden chamber migration assay (Table VI). The conditions noted are these: Homo sapiens, Hs-578T, 16 h, Hs578T cells; 16 h migration. Summed up: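 Migration read-out is a count of fixed cells on the underside of an […] insert membrane after 16 h. Chemoattractant was medium with 10% FCS in the lower chamber; 20000 cells started in serum-free medium with 0.1% BSA above, and those left on top were removed by swab.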

For experiment [1], the system named is SF763. In words: Apoptosis assay (Cellomics, nucleus condensation). The settings on record: Table III, read-out: Apoptosis induction in SF763. In short, it runs like this:
(§1)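 Cells at 5000 per well were stained live with Hoechst 33342 and imaged on an automated fluorescence microscope after 24 h and 48 h compound exposure (12.5 μM down to 0.39 μM, twofold steps; DMSO control). Per-nucleus intensity variation quantified nuclear condensation; cell counts were also recorded.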

The test system of the next experiment is Hs578T. In words: Apoptosis assay (Cellomics, nucleus condensation). The conditions noted are these: Homo sapiens, Hs-578T, Table III, read-out: Apoptosis induction in Hs578T. Summed up: as §1
A further experiment concerns SF126. Nature of the experiment: Apoptosis assay (Cellomics, nucleus condensation). The conditions noted are these: Homo sapiens, SF-126, Table III, read-out: Apoptosis induction in SF126. Summed up:
as §1

Experiment [2] concerns U138. Nature of the experiment: Apoptosis assay (Cellomics, nucleus condensation). The conditions noted are these: Table III, read-out: Apoptosis induction in U138. In short, it runs like this: as §1
For another experiment, the system named is U118. Nature of the experiment: Apoptosis assay (Cellomics, nucleus condensation). The settings on record: Table III, read-out: Apoptosis induction in U118. In short, it runs like this:
as §1

Experiment [3] relates to C8161. In words: Apoptosis assay (Cellomics, nucleus condensation). The conditions noted are these: Homo sapiens, Table III, read-out: Apoptosis induction in C8161. Summed up:
as §1

The test system of experiment [4] is SF763. In words: Cell vitality assay (ATP assay, CellTiter-Glo). The settings on record: SF763, 72 h; Table IIa; read-out: IC50 ATP-Assay after 72 h SF763. Summed up: (§2)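 IC50s reflect 50% loss of ATP-dependent luminescence versus DMSO control after a 72 h treatment of 1000 cells per well across 0.195–12.5 μM compound.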
For orientation: Cellular ATP, detected with luciferase, serves as a proxy for viable cell number.

The test system of a further experiment is MDA-MB231. Nature of the experiment: Cell vitality assay (ATP assay, CellTiter-Glo). The conditions noted are these: Homo sapiens, MDA-MB-231; MDA-MB231, 72 h; Table IIa; read-out: IC50 ATP-Assay after 72 h MDA-MB231. Summed up:
as §2

Experiment [5] deals with U138. In words: Cell vitality assay (ATP assay, CellTiter-Glo). The conditions noted are these: U138, 72 h; Table IIa; read-out: IC50 ATP-Assay after 72 h U138. In short, it runs like this: as §2
A further experiment relates to A172. In words: Cell vitality assay (ATP assay, CellTiter-Glo). The conditions noted are these: Homo sapiens, A 172; A172, 72 h; Table IIa; read-out: IC50 ATP-Assay after 72 h A172. Summed up: as §2
The test system of experiment [6] is C8161. Nature of the experiment: Cell vitality assay (ATP assay, CellTiter-Glo). The conditions noted are these: Homo sapiens; C8161, 72 h; Table IIa; read-out: IC50 ATP-Assay after 72 h C8161. In short, it runs like this: as §2
For a further experiment, the system named is viable cells in culture. Nature of the experiment: Cell viability assay at 10 μM (CellTiter-Glo, Table VII).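 Further: graded A 0-20%; B 21-40%; C 41-60%; D over 60% viable cells relative to DMSO control.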 The conditions noted are these: compound 10 μM, 72 h. In short, it runs like this: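 Cells were seeded at 1000 cells/well in 96-well plates in 100 μl culture medium and incubated for 72 h with 10 μM compound or a DMSO control. ATP content, which reflects metabolically active and therefore viable cells, was then determined by CellTiter-Glo luminescence (Promega) per the manufacturer's instructions and expressed relative to the DMSO control.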

The mark [7] stands for this setting: Homo sapiens, HCT-116, HCT116 def, read-out: percentage (%) of viable cells HCT 116def.
Setting [8] is: Homo sapiens, HCT-116, HCT116 wt, read-out: percentage (%) of viable cells HCT 116wt.
Setting [9] is: Homo sapiens, HT-29, HT29, read-out: percentage (%) of viable cells HT29.
The mark [10] stands for this setting: Homo sapiens, NCI-H358, H358, read-out: percentage (%) of viable cells H358.
The mark [11] stands for this setting: Homo sapiens, NCI-H1650, H1650, read-out: percentage (%) of viable cells H1650.
[12] abbreviates: Homo sapiens, NCI-H1666, H1666, read-out: percentage (%) of viable cells H1666.
[13] abbreviates: Homo sapiens, NCI-H1975, H1975, read-out: percentage (%) of viable cells H1975.
Where [14] appears, read: Homo sapiens, NCI-H1993, H1993, read-out: percentage (%) of viable cells H1993.
The mark [15] stands for this setting: Homo sapiens, A549, read-out: percentage (%) of viable cells A549.
The mark [16] stands for this setting: Homo sapiens, HCC827, read-out: percentage (%) of viable cells HCC827.
The mark [17] stands for this setting: Homo sapiens, SW480, read-out: percentage (%) of viable cells SW480.
Setting [18] is: RKO, read-out: percentage (%) of viable cells RKO.

Like-named read-outs stand apart in the source and are kept apart here.

Consider `COc1cc2c(Oc3ccc(NS(=O)(=O)c4cccc(Oc5ccccc5)c4)cc3F)ccnc2cc1OCCCN1CCCCC1` [Example 10, N-{3-Fluoro-4-[6-methoxy-7-(3-piperidin-1-yl-propoxy)-quinolin-4-yloxy]-phenyl}-3-phenoxy-benzenesulfonamide], for which the IC50 in the experiment with cells was ≤ 5 µM; in the experiment on SF763 [1] it was 12.5 to 50 µM; in the experiment with Hs578T, ≤ 12.5 µM; in the experiment on SF126 it was 12.5 to 50 µM; in the experiment on U138 [2], ≤ 12.5 µM; in the experiment with U118 it was ≤ 12.5 µM. The IC50 in the experiment with C8161 [3], in the experiment on SF763 [4], with MDA-MB231, with U138 [5], with A172 and with C8161 [6] was ≤ 12.5 µM in each case. Moreover, the viability at 10 µM in the experiment with viable cells in culture (setting [7]) lay in the range of 0 to 20%; with viable cells in culture (setting [8]), 0 to 20%; with viable cells in culture (setting [9]), 21 to 40%; in the experiment on viable cells in culture (setting [10]) it was 0 to 20%; in the experiment with viable cells in culture (setting [11]), 21 to 40%; in the experiment on viable cells in culture (setting [12]) it was 21 to 40%. Also, the viability at 10 µM was in the range of 21 to 40% in the experiment on viable cells in culture (setting [13]); 0 to 20% in the experiment on viable cells in culture (setting [14]); 21 to 40% with viable cells in culture (setting [15]); 0 to 20% in the experiment on viable cells in culture (setting [16]); 0 to 20% in the experiment with viable cells in culture (setting [17]); 0 to 20% with viable cells in culture (setting [18]).

Consider `COc1cc2c(Oc3ccc(NS(=O)(=O)c4ccccc4Cl)cc3F)ccnc2cc1OCCCN1CCCC(C)C1` (centres unmarked) [Example 38, 2-Chloro-N-(3-fluoro-4-{6-methoxy-7-[3-(3-methyl-piperidin-1-yl)-propoxy]-quinolin-4-yloxy}-phenyl)-benzenesulfonamide], for which the IC50 in the experiment on cells was 5 to 50 µM; with SF763 [1] it was ≤ 12.5 µM; with Hs578T, ≤ 12.5 µM; with SF126, ≤ 12.5 µM; in the experiment on U138 [2], ≤ 12.5 µM; with U118, ≤ 12.5 µM. Also, the IC50 in the experiment with C8161 [3], in the experiment with SF763 [4], in the experiment on MDA-MB231, in the experiment with U138 [5], in the experiment on A172 and in the experiment on C8161 [6] was ≤ 12.5 µM throughout. Also, the viability at 10 µM with viable cells in culture (setting [7]) was 21 to 40%; with viable cells in culture (setting [8]), 21 to 40%; with viable cells in culture (setting [9]), 0 to 20%; with viable cells in culture (setting [10]), 0 to 20%; in the experiment with viable cells in culture (setting [11]) it was > 60%; in the experiment on viable cells in culture (setting [12]), 21 to 40%. For the same compound, the viability at 10 µM is 21 to 40% with viable cells in culture (setting [13]); 21 to 40% in the experiment on viable cells in culture (setting [14]); > 60% in the experiment with viable cells in culture (setting [15]); 41 to 60% with viable cells in culture (setting [16]); 0 to 20% in the experiment with viable cells in culture (setting [17]); 0 to 20% with viable cells in culture (setting [18]).

For `COc1cc2c(Oc3ccc(NS(=O)(=O)c4ccc(F)cc4F)cc3F)ccnc2cc1OCCCN1CCCC(C)C1` (centres unmarked) [Example 47, 2,4-Difluoro-N-(3-fluoro-4-{6-methoxy-7-[3-(3-methyl-piperidin-1-yl)-propoxy]-quinolin-4-yloxy}-phenyl)-benzenesulfonamide], the IC50 was ≤ 5 µM in the experiment with cells; ≤ 12.5 µM in the experiment on SF763 [1]; ≤ 12.5 µM in the experiment on Hs578T; 12.5 to 50 µM in the experiment with SF126; ≤ 12.5 µM in the experiment with U138 [2]; ≤ 12.5 µM in the experiment with U118. The IC50 in the experiment with C8161 [3] was 12.5 to 50 µM; in the experiment on SF763 [4], ≤ 12.5 µM; in the experiment with MDA-MB231, 12.5 to 50 µM; with U138 [5], ≤ 12.5 µM; in the experiment with A172, ≤ 12.5 µM; in the experiment with C8161 [6] it was 12.5 to 50 µM. The viability at 10 µM in the experiment on viable cells in culture (setting [7]) is 21 to 40%; in the experiment on viable cells in culture (setting [8]), 0 to 20%; in the experiment on viable cells in culture (setting [9]), 41 to 60%; in the experiment with viable cells in culture (setting [10]), 0 to 20%; in the experiment on viable cells in culture (setting [11]), 41 to 60%; in the experiment on viable cells in culture (setting [12]), 21 to 40%. The viability at 10 µM in the experiment with viable cells in culture (setting [13]) fell in the range of 0 to 20%; in the experiment on viable cells in culture (setting [14]), 0 to 20%; with viable cells in culture (setting [15]), 41 to 60%; in the experiment with viable cells in culture (setting [16]) it was 41 to 60%; in the experiment on viable cells in culture (setting [17]) it was 21 to 40%; with viable cells in culture (setting [18]), 0 to 20%.

For the compound `COc1cc2c(Oc3ccc(NS(=O)(=O)c4c(F)cccc4F)cc3F)ccnc2cc1OCCCN1CCOCC1` [Example 77, 2,6-Difluoro-N-{3-fluoro-4-[6-methoxy-7-(3-morpholin-4-yl-propoxy)-quinolin-4-yloxy]-phenyl}-benzenesulfonamide], the IC50 was ≤ 5 µM in the experiment with cells; ≤ 12.5 µM in the experiment on SF763 [1]; ≤ 12.5 µM in the experiment on Hs578T; ≤ 12.5 µM in the experiment with SF126; ≤ 12.5 µM in the experiment on U138 [2]; ≤ 12.5 µM in the experiment on U118. For the same compound, the IC50 was ≤ 12.5 µM in the experiment on C8161 [3]; ≤ 12.5 µM with SF763 [4]; 12.5 to 50 µM with MDA-MB231; ≤ 12.5 µM with U138 [5]; ≤ 12.5 µM in the experiment with A172; ≤ 12.5 µM with C8161 [6]. Besides, the viability at 10 µM with viable cells in culture (setting [7]) was 21 to 40%; in the experiment with viable cells in culture (setting [8]) it was 0 to 20%; in the experiment with viable cells in culture (setting [9]), 41 to 60%; in the experiment with viable cells in culture (setting [10]) it was 0 to 20%; in the experiment with viable cells in culture (setting [11]), 21 to 40%; in the experiment with viable cells in culture (setting [12]), 41 to 60%. Further, the viability at 10 µM with viable cells in culture (setting [13]) was 0 to 20%; in the experiment on viable cells in culture (setting [14]), 21 to 40%; in the experiment with viable cells in culture (setting [15]), 41 to 60%; with viable cells in culture (setting [16]), > 60%; in the experiment with viable cells in culture (setting [17]), 0 to 20%; in the experiment on viable cells in culture (setting [18]), 21 to 40%.

On to `COc1cc2c(Oc3ccc(NS(=O)(=O)c4ccccc4C(F)(F)F)cc3F)ccnc2cc1OCCCN1CCCCC1C` (centres unmarked) [Example 99, N-(3-Fluoro-4-{6-methoxy-7-[3-(2-methyl-piperidin-1-yl)-propoxy]-quinolin-4-yloxy}-phenyl)-2-trifluoromethyl-benzenesulfonamide], for which the IC50 is ≤ 12.5 µM in the experiment with SF763 [1]; ≤ 12.5 µM in the experiment on Hs578T; ≤ 12.5 µM with SF126; ≤ 12.5 µM with U138 [2]; 12.5 to 50 µM in the experiment on U118; ≤ 12.5 µM in the experiment with C8161 [3]. Further, the IC50 was ≤ 12.5 µM in the experiment on SF763 [4]; ≤ 12.5 µM in the experiment on MDA-MB231; ≤ 12.5 µM with U138 [5]; ≤ 12.5 µM with A172; 12.5 to 50 µM with C8161 [6]. Moreover, the viability at 10 µM in the experiment on viable cells in culture (setting [7]) was > 60%; with viable cells in culture (setting [8]), 0 to 20%; with viable cells in culture (setting [9]) it was 21 to 40%; with viable cells in culture (setting [10]), 0 to 20%; in the experiment on viable cells in culture (setting [11]), 21 to 40%; in the experiment with viable cells in culture (setting [12]) it was 41 to 60%. Moreover, the viability at 10 µM with viable cells in culture (setting [13]) lay in the range of 21 to 40%; in the experiment on viable cells in culture (setting [14]), 21 to 40%; with viable cells in culture (setting [15]), 21 to 40%; with viable cells in culture (setting [16]), 41 to 60%; in the experiment with viable cells in culture (setting [17]), 0 to 20%; in the experiment on viable cells in culture (setting [18]) it was 21 to 40%.
